In patent US10709705B2, “Aminopyrimidines as ALK inhibitors” (THE REGENTS OF THE UNIVERSITY OF MICHIGAN, priority 2016, dated 2020):
Where two headings read alike, the source gives them in different places.

How the values were obtained:
FER = target: T1, FER (Homo sapiens, UniProt P16591); assay: KINOMEscan kinase panel, FER; type: binding
T1 construct: purchased LeadHunter Discovery Services (currently DiscoverX Corporation), KINOMEscan screening service
Source text: (§1) Cpd. No. 5 was screened for its activity against a panel of human kinases using the KINOMEscan™ screening platform from LeadHunter Discovery Services (currently DiscoverX Corporation (Fremont, Calif. 94538, United States). See Table 7.

ALK F1174L = ALK F1174L (Homo sapiens, UniProt Q9UM73, F1174L); assay: Cell based assay, ALK F1174L; design: key: + = active; −− = inactive; settings: Table 5
[1] = Pharmacokinetics in beagle dogs; type: in vivo; settings: Table 9 (beagle dogs)
Procedure: Routine pharmacokinetics studies were performed for Cpd. No. 5 in SD rats and beagle dogs.

LRRK2 = target: T2, LRRK2 (Homo sapiens, UniProt Q5S007); assay: KINOMEscan kinase panel, LRRK2; type: binding
T2 construct: purchased LeadHunter Discovery Services (currently DiscoverX Corporation), KINOMEscan screening service
T2 sequence (Q5S007 whole entry): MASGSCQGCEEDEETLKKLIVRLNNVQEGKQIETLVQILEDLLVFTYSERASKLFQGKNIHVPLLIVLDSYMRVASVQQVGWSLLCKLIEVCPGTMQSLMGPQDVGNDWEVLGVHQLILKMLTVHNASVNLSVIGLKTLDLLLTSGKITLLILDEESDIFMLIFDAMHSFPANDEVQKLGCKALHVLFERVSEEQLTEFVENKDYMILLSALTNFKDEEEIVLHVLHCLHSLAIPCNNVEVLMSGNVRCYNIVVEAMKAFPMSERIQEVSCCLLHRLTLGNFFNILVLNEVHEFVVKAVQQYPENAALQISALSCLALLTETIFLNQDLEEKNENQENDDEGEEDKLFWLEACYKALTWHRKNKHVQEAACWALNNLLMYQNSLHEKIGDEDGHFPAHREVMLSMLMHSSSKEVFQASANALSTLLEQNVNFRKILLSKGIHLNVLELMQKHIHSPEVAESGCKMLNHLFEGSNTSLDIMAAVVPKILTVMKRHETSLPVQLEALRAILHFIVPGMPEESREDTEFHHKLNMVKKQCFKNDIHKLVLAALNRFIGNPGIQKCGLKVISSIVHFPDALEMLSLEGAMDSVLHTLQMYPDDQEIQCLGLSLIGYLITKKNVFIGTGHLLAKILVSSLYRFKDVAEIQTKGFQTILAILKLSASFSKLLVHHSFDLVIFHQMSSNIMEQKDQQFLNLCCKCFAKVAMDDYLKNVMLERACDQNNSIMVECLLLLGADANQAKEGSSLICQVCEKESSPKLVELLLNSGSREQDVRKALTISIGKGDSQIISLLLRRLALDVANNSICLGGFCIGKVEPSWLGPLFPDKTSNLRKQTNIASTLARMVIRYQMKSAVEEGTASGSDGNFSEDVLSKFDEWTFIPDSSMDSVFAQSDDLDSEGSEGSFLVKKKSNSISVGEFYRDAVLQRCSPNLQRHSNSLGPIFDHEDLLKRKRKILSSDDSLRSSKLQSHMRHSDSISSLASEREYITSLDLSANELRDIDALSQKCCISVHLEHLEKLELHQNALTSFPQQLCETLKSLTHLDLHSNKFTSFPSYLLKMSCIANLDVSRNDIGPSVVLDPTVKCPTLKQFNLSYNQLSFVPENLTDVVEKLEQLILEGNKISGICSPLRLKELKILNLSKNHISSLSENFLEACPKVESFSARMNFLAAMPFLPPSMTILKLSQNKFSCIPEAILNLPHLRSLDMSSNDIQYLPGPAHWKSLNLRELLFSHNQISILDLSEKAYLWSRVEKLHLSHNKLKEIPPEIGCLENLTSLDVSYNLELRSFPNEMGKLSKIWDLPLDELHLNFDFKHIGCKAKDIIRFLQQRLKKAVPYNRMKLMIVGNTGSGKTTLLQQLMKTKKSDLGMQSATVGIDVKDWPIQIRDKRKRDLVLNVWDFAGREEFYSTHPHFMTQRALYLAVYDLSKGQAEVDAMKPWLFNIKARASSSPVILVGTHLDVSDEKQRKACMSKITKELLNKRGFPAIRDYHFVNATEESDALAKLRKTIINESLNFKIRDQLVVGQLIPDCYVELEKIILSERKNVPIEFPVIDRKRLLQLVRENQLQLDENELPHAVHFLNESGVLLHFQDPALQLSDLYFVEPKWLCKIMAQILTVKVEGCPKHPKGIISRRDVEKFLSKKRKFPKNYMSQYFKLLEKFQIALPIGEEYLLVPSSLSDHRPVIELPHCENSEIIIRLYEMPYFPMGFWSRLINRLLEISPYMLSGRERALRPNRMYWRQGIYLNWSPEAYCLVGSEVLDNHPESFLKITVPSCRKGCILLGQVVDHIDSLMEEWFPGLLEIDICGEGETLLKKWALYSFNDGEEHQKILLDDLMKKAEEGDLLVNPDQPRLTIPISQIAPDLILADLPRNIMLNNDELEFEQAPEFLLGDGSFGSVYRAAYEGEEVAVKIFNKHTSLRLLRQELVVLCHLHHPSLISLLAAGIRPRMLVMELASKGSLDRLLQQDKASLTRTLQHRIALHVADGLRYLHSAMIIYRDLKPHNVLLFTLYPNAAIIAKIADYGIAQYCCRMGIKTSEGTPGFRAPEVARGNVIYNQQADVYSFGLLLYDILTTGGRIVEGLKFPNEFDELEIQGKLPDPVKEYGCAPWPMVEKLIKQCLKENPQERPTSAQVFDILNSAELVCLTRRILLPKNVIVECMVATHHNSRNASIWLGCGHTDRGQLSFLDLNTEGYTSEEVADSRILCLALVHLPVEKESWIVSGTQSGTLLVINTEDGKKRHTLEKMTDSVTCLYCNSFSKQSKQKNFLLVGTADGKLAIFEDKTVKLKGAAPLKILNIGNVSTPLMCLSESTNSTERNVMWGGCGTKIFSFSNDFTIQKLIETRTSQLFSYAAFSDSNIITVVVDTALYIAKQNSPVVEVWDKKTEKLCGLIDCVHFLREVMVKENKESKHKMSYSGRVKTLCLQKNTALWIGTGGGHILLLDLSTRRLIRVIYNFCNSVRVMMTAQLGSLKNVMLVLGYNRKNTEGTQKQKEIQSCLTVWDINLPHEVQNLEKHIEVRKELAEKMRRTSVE
Source text: as §1

[2] = test system: Kappas-299 cells (NPM-ALK); assay: Cell growth inhibition assay (WST-8), Kappas-299; type: cell-based; settings: read-out: Kappas-299 (nM) (NPM-ALK), 50% of cell growth inhibition (IC50), WST-8, versus DMSO control
Procedure: (§2) H3122 and Kappas-299 cells were purchased from American Type Culture Collection (Manassas, Va., USA) and were used within 2 months after initiating from original stocks. All cell lines were cultured as recommended. For cell growth inhibition assay, cells were treated with different concentrations of the tested compounds, diluted from stock to culture media containing a 0.2% DMSO as the final concentration. Cell viability was determined using the WST-8 cell proliferation assay kit (Dojindo Molecular Technologies) according to manufacturer's instructions. Three independent experiments in triplicates were performed.

ALK S1206Y = target: T3, ALK S1206Y (Homo sapiens, UniProt Q9UM73, S1206Y); assay: Mutant ALK kinase inhibition, Lance TR-FRET, S1206Y; type: biochemical; settings: Table 5; ATP 100 μM
T3 construct: made in house; host or cells: SF9 insect cells
T3 sequence (Q9UM73 19-1620 S1206Y): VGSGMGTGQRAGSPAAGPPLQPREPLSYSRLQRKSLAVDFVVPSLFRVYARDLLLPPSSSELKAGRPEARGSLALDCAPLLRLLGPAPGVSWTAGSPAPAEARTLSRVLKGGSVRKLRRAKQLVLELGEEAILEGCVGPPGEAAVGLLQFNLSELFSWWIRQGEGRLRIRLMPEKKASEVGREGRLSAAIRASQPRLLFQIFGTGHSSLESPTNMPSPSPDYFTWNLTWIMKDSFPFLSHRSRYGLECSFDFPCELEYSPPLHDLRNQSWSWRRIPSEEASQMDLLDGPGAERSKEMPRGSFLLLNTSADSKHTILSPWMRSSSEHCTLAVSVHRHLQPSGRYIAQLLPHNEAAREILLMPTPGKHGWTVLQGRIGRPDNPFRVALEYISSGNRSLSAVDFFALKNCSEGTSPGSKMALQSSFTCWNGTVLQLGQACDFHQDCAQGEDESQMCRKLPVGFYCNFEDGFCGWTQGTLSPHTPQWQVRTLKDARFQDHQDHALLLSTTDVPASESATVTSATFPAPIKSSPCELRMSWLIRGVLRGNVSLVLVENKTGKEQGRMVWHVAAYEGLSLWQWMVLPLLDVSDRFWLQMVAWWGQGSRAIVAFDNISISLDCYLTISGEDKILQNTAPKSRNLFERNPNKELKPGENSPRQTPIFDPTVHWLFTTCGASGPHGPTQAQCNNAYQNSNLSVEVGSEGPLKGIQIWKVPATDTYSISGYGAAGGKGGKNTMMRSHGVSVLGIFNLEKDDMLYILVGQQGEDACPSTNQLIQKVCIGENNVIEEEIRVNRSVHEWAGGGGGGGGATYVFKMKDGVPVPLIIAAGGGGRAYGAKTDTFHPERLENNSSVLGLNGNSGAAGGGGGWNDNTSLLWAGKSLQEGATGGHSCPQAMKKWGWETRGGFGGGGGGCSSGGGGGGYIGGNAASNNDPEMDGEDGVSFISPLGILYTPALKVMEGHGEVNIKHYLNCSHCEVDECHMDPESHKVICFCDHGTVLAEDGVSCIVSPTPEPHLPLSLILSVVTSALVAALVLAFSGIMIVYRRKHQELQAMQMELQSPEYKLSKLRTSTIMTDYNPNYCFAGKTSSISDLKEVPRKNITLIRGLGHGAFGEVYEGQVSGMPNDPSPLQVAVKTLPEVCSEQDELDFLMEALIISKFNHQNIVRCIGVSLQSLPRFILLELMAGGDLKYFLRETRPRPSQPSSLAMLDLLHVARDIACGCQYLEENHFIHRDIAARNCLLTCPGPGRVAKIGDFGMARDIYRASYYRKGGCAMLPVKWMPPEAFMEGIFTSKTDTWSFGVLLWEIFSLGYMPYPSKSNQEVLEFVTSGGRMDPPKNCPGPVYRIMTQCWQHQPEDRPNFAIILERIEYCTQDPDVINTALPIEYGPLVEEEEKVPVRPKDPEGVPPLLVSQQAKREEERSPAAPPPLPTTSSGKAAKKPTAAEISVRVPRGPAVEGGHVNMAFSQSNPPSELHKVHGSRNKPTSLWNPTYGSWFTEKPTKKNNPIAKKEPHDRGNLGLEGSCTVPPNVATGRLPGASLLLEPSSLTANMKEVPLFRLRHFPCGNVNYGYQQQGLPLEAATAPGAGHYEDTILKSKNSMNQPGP
Procedure: The cytoplasmic domain (amino acid 1058-1620) of wild-type human ALK protein expressed as N-terminal GST-fusion protein was purchased from Carna Biosciences, Inc (Japan). Mutated ALK proteins were expressed in SF9 insect cells with N-terminal tags cleaved after purification. Kinase activities of all enzymes were assessed using a Lance® TR-FRET assay kit from Perkin Elmer Life Sciences (Waltham, Mass.). 2.5 μL of compound solution and 5 μL of protein solution were added into a black low volume 384 well microtiter plate which was incubated for 30 minutes with gentle shaking at room temperature, followed by adding 2.5 μL of fluorescently labeled peptide substrate (ULight™-IRS-1 (Tyr983) Peptide) and ATP mixture solution. The kinase reaction was performed in 50 mM HEPES (pH 7.5) with 1 mM EGTA, 1 mM MgCl2, and 2 mM DTT, 0.01% Tween-20 added right before the assay. Final concentrations of ATP, substrates, and DMSO were 100 μM, 20 nM, and 0.5%, respectively. […] The final mixture was incubated in the dark for 1 hour before the plate was read on a Tecan Infinite M-1000 multi-mode plate reader (Tecan, Durham N.C.) with an excitation wavelength of 320 nm. Emission intensities were measured at both 620 and 665 nm with the intensity ratio between 665 and 620 nm corresponding to the peptide substrate phosphorylation. […]

H3122 cells (EML4-ALK) = assay: Cell growth inhibition assay (WST-8), H3122; type: cell-based; settings: Homo sapiens, NCI-H3122, read-out: H3122 (nM) (EML4-ALK), 50% of cell growth inhibition (IC50), WST-8, versus DMSO control
Procedure: as §2

[3] = test system: Human lymphoma cells, KARPAS 299 xenograft; assay: KARPAS 299 xenograft tumor growth in SCID mice; type: in vivo; settings: given orally, once daily for 3 weeks, FIG. 1
Procedure: Cpd. Nos. 5 and 6 were dissolved in a solution of 98% PEG200: 2% TPGS (Sigma).
Human lymphoma cells, KARPAS 299 were maintained at 37° C., 95% air, 5% carbon dioxide in RPMI 1640 medium supplemented with 10% Fetal Bovine Serum, 100 units/ml of penicillin and 100 units/ml of streptomycin (GIBCO™, Invitrogen Corp.) and passaged twice weekly.
Tumor cells for xenografts were washed twice in PBS, and re-suspended in an ice cold mixture of 1:1 PBS and Matrigel (BD Biosciences, Invitrogen Corp.) for a final Matrigel protein concentration of 5 mg/ml. Cells at 5×10^6 cells in 0.1 ml were injected subcutaneously (s.c.) into the flank region of each mouse. All tumors were inoculated into SCID mice (strain:236 C.B-17 SCID, Charles River).
The size of tumors growing in the mice was measured in two dimensions using calipers. Tumor volume (mm^3)=(AxB^2)/2 where A and B are the tumor length and width (in mm), respectively. During treatment, tumor volume and body weight were measured three times a week. After the treatment was stopped, tumor volume and body weight was measured at least once a week.
Tumors were not allowed to exceed 10% of the animal's total body weight. If an animal had two or more tumors the total weight of all tumors were not allowed to exceed 10% of the animal's total body weight. […]

FAK = target: T4, FAK (Homo sapiens, UniProt Q05397); assay: KINOMEscan kinase panel, FAK; type: binding
T4 construct: purchased LeadHunter Discovery Services (currently DiscoverX Corporation), KINOMEscan screening service
T4 sequence (Q05397 whole entry): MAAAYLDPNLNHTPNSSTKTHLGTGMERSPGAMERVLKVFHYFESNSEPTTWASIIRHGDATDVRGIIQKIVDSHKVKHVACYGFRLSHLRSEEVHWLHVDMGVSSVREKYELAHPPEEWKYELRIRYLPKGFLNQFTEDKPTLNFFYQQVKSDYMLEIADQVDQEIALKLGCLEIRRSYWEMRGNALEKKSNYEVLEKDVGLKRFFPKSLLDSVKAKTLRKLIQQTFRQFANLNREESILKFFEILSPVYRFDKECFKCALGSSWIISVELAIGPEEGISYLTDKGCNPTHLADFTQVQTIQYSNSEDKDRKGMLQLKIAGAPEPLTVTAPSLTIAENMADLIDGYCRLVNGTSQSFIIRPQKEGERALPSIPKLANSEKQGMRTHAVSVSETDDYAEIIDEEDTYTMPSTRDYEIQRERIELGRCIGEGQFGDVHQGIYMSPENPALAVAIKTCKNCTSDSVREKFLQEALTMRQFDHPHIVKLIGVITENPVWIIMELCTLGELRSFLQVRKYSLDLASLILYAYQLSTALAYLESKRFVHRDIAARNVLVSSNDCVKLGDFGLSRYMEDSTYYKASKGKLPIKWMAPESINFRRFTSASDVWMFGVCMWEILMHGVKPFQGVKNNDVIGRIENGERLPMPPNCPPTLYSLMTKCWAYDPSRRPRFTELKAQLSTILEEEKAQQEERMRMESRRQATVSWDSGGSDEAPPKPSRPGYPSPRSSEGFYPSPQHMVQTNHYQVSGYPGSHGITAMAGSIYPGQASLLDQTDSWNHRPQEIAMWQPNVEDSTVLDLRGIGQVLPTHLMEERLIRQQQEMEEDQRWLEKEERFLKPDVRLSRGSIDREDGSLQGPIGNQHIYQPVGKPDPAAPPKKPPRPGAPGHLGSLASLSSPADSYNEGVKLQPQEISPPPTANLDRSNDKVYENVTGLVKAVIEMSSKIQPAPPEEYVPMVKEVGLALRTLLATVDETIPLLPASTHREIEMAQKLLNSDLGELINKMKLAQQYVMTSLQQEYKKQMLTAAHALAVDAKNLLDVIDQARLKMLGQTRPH
Source text: as §1

Compound: Cc1cc(Nc2ncc(Cl)c(Nc3ccccc3S(=O)(=O)C(C)C)n2)c(OC(C)C)cc1C1=CCN(C2CCOCC2)CC1 [Cpd. No. 5, 5-chloro-N2-(2-isopropoxy-5-methyl-4-(1-(tetrahydro-2H-pyran-4-yl)-1,2,3,6-tetrahydropyridin-4-yl)phenyl)-N4-(2-(isopropylsulfonyl)phenyl)pyrimidine-2,4-diamine]
- Kd (FER): 11 nM
- F1174L (c) (ALK F1174L): −− (c)
- F(AUC0-t) ([1]; PO 5 mg/kg vs IV 1 mg/kg): 33.3%
- MRT inf ([1]; dog, in vivo, IV 1 mg/kg): 22.1 h
- AUC(0-t) ([1]; dog, in vivo, IV 1 mg/kg, read-out: AUC0-t (ng · h/mL) IV): 1820 ng·h/mL
- AUC(0-inf) ([1]; dog, in vivo, IV 1 mg/kg, read-out: AUC0-∞ (ng · h/mL) IV): 2140 ng·h/mL
- clearance ([1]; dog, in vivo, IV 1 mg/kg, read-out: CL (iv) (converted)): 8.1 mL/min/kg
- Cmax ([1]; dog, in vivo, IV 1 mg/kg, read-out: Cmax(ng/mL) IV): 314 ng/mL
- Tmax ([1]; dog, in vivo, IV 1 mg/kg, read-out: Tmax (h) IV): 0.083 h
- Vd ([1]; dog, in vivo, IV 1 mg/kg, read-out: Vss (iv)): 10.8 L/kg
- half-life ([1]; dog, in vivo, IV 1 mg/kg, read-out: t1/2 (h) IV (converted)): 19.7 h
- AUC(0-t) ([1]; dog, in vivo, PO 5 mg/kg, read-out: AUC0-t (ng · h/mL) PO): 2930 ng·h/mL
- AUC(0-inf) ([1]; dog, in vivo, PO 5 mg/kg, read-out: AUC0-∞ (ng · h/mL) PO): 3710 ng·h/mL
- Cmax ([1]; dog, in vivo, PO 5 mg/kg, read-out: Cmax(ng/mL) PO): 239 ng/mL
- Tmax ([1]; dog, in vivo, PO 5 mg/kg, read-out: Tmax (h) PO): 1.67 h
- half-life ([1]; dog, in vivo, PO 5 mg/kg, read-out: t1/2 (h) PO (converted)): 20 h
- Kd (LRRK2): 6.5 nM
- IC50 [2]: 13 nM
- IC50 (ALK S1206Y): 1.3 nM
- IC50 (H3122 cells (EML4-ALK)): 27 nM
- tumor growth in the KARPAS 299 xenograph model [3]: inhibit tumor growth
- Kd (FAK): 5.4 nM
